Values quoted from earlier work as cited in patent US20250176603A1, “Vegetable-Based Food Product” (L-CONE SP. Z O. O., priority 2023, published 2025).
“Also recorded” adds a separate entry of the source.

How the values were obtained:
Ehrlich ascites tumor = conditions: mice
[1] = tested on: pancreatic cancer patients resistant to gemcitabine chemotherapy; conditions: 8 g/day in a divided dose for 11 months
[2] = tested on: prostate cancer patients undergoing radiotherapy
[3] = tested on: acetic acid-induced ulcerative colitis; conditions: oral administration
TPOAb antibody = conditions: 200 ug for 3 months
[4] = tested on: lipopolysaccharide (LPS)-activated BV2 microglia
[5] = tested on: diethylnitrosamine-induced hepatocarcinogenesis; conditions: rats
DSS-induced colitis = DSS-induced colitis model
[6] = in vivo

In the case of C=CCN=C=S [allyl isothiocyanate], the cytotoxic effect (bladder) is given as “cytotoxic effect”, the cytotoxic effect (lung cancer cells) is given as “cytotoxic effect” and the “Ehrlich ascites tumor growth” value (Ehrlich ascites tumor) is given as “inhibited”.
In the case of COc1cc(/C=C/C(=O)CC(=O)/C=C/c2ccc(O)c(OC)c2)ccc1O [curcumin], the “chances of longer survival” value [1] is given as “significantly increased; also recorded: increased significantly” and the “radiation side effects and therapeutic efficacy” value [2] is given as “alleviate the side effects of radiation and enhance its therapeutic efficacy; also recorded: mitigate radiation side effects and enhance therapeutic efficacy”.
For COc1cc(C2Oc3cc([C@H]4Oc5cc(O)cc(O)c5C(=O)[C@@H]4O)ccc3OC2CO)ccc1O (some centres unmarked) [silybin], the “IL-6 and TNF-α activity” value [3] is listed as “significant reduction”.
In the case of O=[Se](=O)(O)O [sodium selenate], the TPOAb antibody levels (TPOAb antibody) is given as “significantly reduced”.
For O=CC=Cc1ccccc1 [Cinnamaldehyde], the tau protein aggregation (tau protein) is given as “potential in inhibiting” and the “production and expression of NO, IL-1b, IL-6 and TNF-a” value [4] is given as “decrease”.
For C=CCC(=NOS(=O)(=O)O)S[C@@H]1O[C@H](CO)[C@@H](O)[C@H](O)[C@H]1O (stereo in doubt) [Sinigrin], the diethylnitrosamine-induced hepatocarcinogenesis [5] is given as “inhibited”.
For C[Se]CC[C@H](N)C(=O)O [selenomethionine], the TPOAb antibody levels (TPOAb antibody) is given as “significantly reduced”.
In the case of O=C1c2c(O)cc(O)cc2O[C@H](c2ccc(O)c(O)c2)[C@H]1O [taxifolin], the NF-κB activation (DSS-induced colitis) is listed as “reduce”.
In the case of O=C(/C=C/C=C/c1ccc2c(c1)OCO2)N1CCCCC1 [piperine], the cytotoxic effects (K-562 cells) is listed as “strong cytotoxic effects”.
For C[S+]([O-])CCCCN=C=S (centres unmarked) [Sulforaphane], the level of bioavailability [6] is listed as 74%.
